Measurements taken from US11477982B2, “2-amino-5-oxyalkyl-pyrimidine derivatives and their use for controlling undesired plant growth” (Bayer CropScience Aktiengesellschaft, priority 2017, dated 2022).

Tests used:
Format in all cases: in vivo
[1] = test system: AMARE: Amaranthus retroflexus; assay: Pre-emergence herbicidal effect; settings: for Herbicidal action against AMARE: pre-emergence; for Herbicidal efficacy against AMARE: Table 4b, pre-emergence as titled, dosage 80 g of a.i./ha
Excerpt: (§1) 1. Pre-Emergence Herbicidal Effect and Crop Plant Compatibility
(§2) Seeds of monocotyledonous and dicotyledonous weed plants and crop plants are placed in plastic or wood fiber pots and covered with soil. The compounds of the invention, formulated in the form of wettable powders (WP) or as emulsion concentrates (EC), are then applied onto the surface of the covering soil as aqueous suspension or emulsion with addition of 0.5% additive at a water application rate of 600 l/ha (converted).
(§3) After the treatment, the pots are placed in a greenhouse and kept under good growth conditions for the trial plants. After about 3 weeks, the effect of the preparations is scored visually in comparison with untreated controls as percentages. For example, 100% activity=the plants have died, 0% activity=like control plants.

[2] = test system: MATIN: Matricaria inodora; assay: Pre-emergence herbicidal effect; settings: for Herbicidal action against MATIN: pre-emergence, dosage 320 g/ha; for Herbicidal efficacy against MATIN: Table 4b, pre-emergence as titled, dosage 80 g of a.i./ha
Excerpt: as §1, §2, §3

[3] = test system: POLCO: Polygonum convolvulus; assay: Pre-emergence herbicidal effect; settings: for Herbicidal efficacy against POLCO: Table 4a, dosage 20 g of a.i./ha
Excerpt: as §1, §2, §3

VERPE: Veronica persica = assay: Pre-emergence herbicidal effect; settings: dosage 320 g/ha
Excerpt: as §1, §2, §3

VIOTR: Viola tricolor = assay: Pre-emergence herbicidal effect; settings: dosage 320 g/ha
Excerpt: as §1, §2, §3

[4] = test system: ALOMY: Alopecurus myosuroides; assay: Pre-emergence herbicidal effect
Excerpt: as §1, §2, §3

[5] = test system: ECHCG: Echinochloa crus-galli; assay: Pre-emergence herbicidal effect
Excerpt: as §1, §2, §3

HORMU: Hordeum murinum = assay: Pre-emergence herbicidal effect; settings: for Herbicidal efficacy against HORMU: Table 4b, pre-emergence as titled, dosage 80 g of a.i./ha; for Herbicidal action against HORMU: pre-emergence
Excerpt: as §1, §2, §3

SETVI: Setaria viridis = assay: Pre-emergence herbicidal effect
Excerpt: as §1, §2, §3

STEME: Stellaria media [6] = assay: Pre-emergence herbicidal effect; settings: Table 4b; pre-emergence as titled; dosage 80 g of a.i./ha
Excerpt: as §1, §2, §3

[7] = test system: ABUTH: Abutilon theophrasti; assay: Pre-emergence herbicidal effect; settings: for Herbicidal efficacy against ABUTH: Table 4a, dosage 20 g of a.i./ha
Excerpt: as §1, §2, §3

LOLRI: Lolium rigidum = assay: Pre-emergence herbicidal effect; settings: for Herbicidal efficacy against LOLRI: Table 4a, dosage 20 g of a.i./ha
Excerpt: as §1, §2, §3

PHBPU: Ipomoea purpurea = assay: Pre-emergence herbicidal effect; settings: for Herbicidal efficacy against PHBPU: Table 4a, dosage 20 g of a.i./ha
Excerpt: as §1, §2, §3

[8] = test system: ABUTH: Abutilon theophrasti; assay: Post-emergence herbicidal effect; settings: dosage 320 g/ha
Protocol: (§4) 2. Post-Emergence Herbicidal Effect and Crop Plant Compatibility
(§5) Seeds of monocotyledonous and dicotyledonous weeds and crop plants are placed in sandy loam in plastic or wood-fiber pots, covered with soil and cultivated in a greenhouse under controlled growth conditions, 2 to 3 weeks after sowing, the test plants are treated at the one-leaf stage. The compounds of the invention, formulated in the form of wettable powders (WP) or as emulsion concentrates (EC), are then sprayed onto the green parts of the plants as aqueous suspension or emulsion with addition of 0.5% additive at a water application rate of 600 l/ha (converted). After the test plants had been kept in the greenhouse under optimum growth conditions for about 3 weeks, the activity of the preparations is rated visually in comparison to untreated controls. For example, 100% activity=the plants have died, 0% activity=like control plants.

[9] = test system: AMARE: Amaranthus retroflexus; assay: Post-emergence herbicidal effect; settings: dosage 320 g/ha
Protocol: as §4, §5

[10] = test system: ECHCG: Echinochloa crus-galli; assay: Post-emergence herbicidal effect; settings: dosage 320 g/ha
Protocol: as §4, §5

STEME: Stellaria media [11] = assay: Post-emergence herbicidal effect
Protocol: as §4, §5

AVEFA: Avena fatua = assay: Pre-emergence herbicidal effect
Excerpt: as §1, §2, §3

[12] = Table 4b, pre-emergence as titled, dosage 80 g of a.i./ha
[13] = Table 4a, pre-emergence, dosage 20 g of a.i./ha

Row | SMILES | Herbicidal action against AMARE ([1]; dosage 320 g/ha) | Herbicidal action against MATIN [2] | Herbicidal action against POLCO ([3]; dosage 320 g/ha) | Herbicidal action against VERPE (VERPE: Veronica persica) | Herbicidal action against VIOTR (VIOTR: Viola tricolor) | other results
1 | COc1cccc2c1CCCC2Nc1ncc(C(C)(C)O)c(C)n1 (racemic) [Example 1.44] | 100% | 100% | 100% | 100% | 100% | 
2 | Cc1cc2c(s1)CCCC2Nc1ncc(C(C)(C)O)c(C)n1 (centres unmarked) [drawing 18, reference compound] |  |  |  |  |  | Herbicidal efficacy against ALOMY [4, 12]: 20; Herbicidal efficacy against AMARE [1]: 20; Herbicidal efficacy against ECHCG [5, 12]: 30; Herbicidal efficacy against HORMU (HORMU: Hordeum murinum): 10; Herbicidal efficacy against MATIN [2]: 20; Herbicidal efficacy against SETVI (SETVI: Setaria viridis; [12]): 20; Herbicidal efficacy against STEME (STEME: Stellaria media [6]): 30
3 | Cc1cc2c(s1)CCCC2Nc1ncc(C(C)O)c(C)n1 (centres unmarked) [drawing 19, reference compound] |  |  |  |  |  | Herbicidal efficacy against ALOMY [4, 12]: 10; Herbicidal efficacy against AMARE [1]: 30; Herbicidal efficacy against ECHCG [5, 12]: 40; Herbicidal efficacy against HORMU (HORMU: Hordeum murinum): 0; Herbicidal efficacy against MATIN [2]: 20; Herbicidal efficacy against SETVI (SETVI: Setaria viridis; [12]): 20; Herbicidal efficacy against STEME (STEME: Stellaria media [6]): 20
4 | Cc1cc2c(s1)CCCC2Nc1ncc(C(C)(C)O)c(C)n1 (centres unmarked) [drawing 16, reference compound] |  |  |  |  |  | Herbicidal efficacy against ABUTH [7]: 80; Herbicidal efficacy against ALOMY [4, 13]: 30; Herbicidal efficacy against ECHCG [5, 13]: 30; Herbicidal efficacy against LOLRI (LOLRI: Lolium rigidum): 0; Herbicidal efficacy against PHBPU (PHBPU: Ipomoea purpurea): 0; Herbicidal efficacy against POLCO [3]: 20; Herbicidal efficacy against SETVI (SETVI: Setaria viridis; [13]): 80
5 | Cc1ccc2c(c1)[C@H](Nc1ncc(C(C)(C)O)c(N)n1)[C@@H](C)C2 [drawing 6, reference compound] |  |  |  |  |  | Herbicidal action against AMARE ([1]; dosage 80 g/ha): 40%; Herbicidal action against HORMU (HORMU: Hordeum murinum; dosage 80 g/ha): 20%; Herbicidal action against PHBPU (PHBPU: Ipomoea purpurea; dosage 80 g/ha): 0%; Herbicidal action against PHBPU (PHBPU: Ipomoea purpurea; dosage 320 g/ha): 0%; Herbicidal action against POLCO ([3]; dosage 80 g/ha): 0%
6 | CC(C)(O)c1cnc(NC2CCOc3ccccc32)nc1 (racemic) [Example 1.9] | 100% | 100% | 100% | 100% | 100% | 
7 | Cc1ccc2c(c1)[C@H](Nc1ncc(C(C)(C#N)O[Si](C)(C)C)cn1)[C@@H](C)C2 (some centres unmarked) [Example 1.16] | 100% | 100% | 100% | 100% | 100% | 
8 | Cc1ccc2c(c1)[C@H](Nc1ncc(C(C)O)c(C)n1)CCO2 (some centres unmarked) [Example 1.49] | 100% | 100% | 100% | 100% | 100% | Herbicidal action against ABUTH [8]: 80%; Herbicidal action against AMARE [9]: 90%; Herbicidal action against ECHCG [10]: 80%; Herbicidal action against STEME (STEME: Stellaria media [11]; dosage 320 g/ha): 90%
9 | Cc1ccc2c(c1)[C@H](Nc1ncc(C(C)(C)O)c(N)n1)[C@@H](C)C2 [drawing 4, reference compound] |  |  |  |  |  | Herbicidal action against ABUTH ([7]; dosage 80 g/ha): 20%; Herbicidal action against ABUTH ([7]; dosage 320 g/ha): 60%; Herbicidal action against ALOMY ([4]; pre-emergence, dosage 80 g/ha): 30%; Herbicidal action against ALOMY ([4]; pre-emergence, dosage 320 g/ha): 60%; Herbicidal action against AVEFA (AVEFA: Avena fatua; dosage 80 g/ha): 10 10%; Herbicidal action against AVEFA (AVEFA: Avena fatua; dosage 320 g/ha): 10 10%; Herbicidal action against ECHCG ([5]; pre-emergence, dosage 80 g/ha): 30%; Herbicidal action against LOLRI (LOLRI: Lolium rigidum; dosage 80 g/ha): 40%; Herbicidal action against SETVI (SETVI: Setaria viridis; pre-emergence, dosage 80 g/ha): 30%
10 | Cc1nc(N[C@@H]2CCc3ccccc32)ncc1C(C)O (some centres unmarked) [Example 1.47] | 100% | 100% | 100% | 100% | 100% | 
11 | Cc1ccc2c(c1)[C@H](Nc1ncc([C@H](C)O)c(N)n1)[C@@H](C)C2 (racemic) [drawing 5, reference compound] |  |  |  |  |  | Herbicidal action against AVEFA (AVEFA: Avena fatua; dosage 80 g/ha): 20%; Herbicidal action against AVEFA (AVEFA: Avena fatua; dosage 320 g/ha): 60%
12 | Cc1ccc2c(c1)[C@H](Nc1ncc(C(C)(O)CC(C)C)cn1)[C@@H](C)C2 (some centres unmarked) [Example 1.25] | 100% | 100% | 100% | 100% | 100% | 
13 | CC(C)=CC(C)(O)c1cnc(N[C@H]2c3cc(C)ccc3C[C@@H]2C)nc1 (some centres unmarked) [Example 1.27] | 100% | 100% | 100% | 100% | 100% | 
14 | Cc1cccc2c1CCCC2Nc1ncc(C(C)(C)O)cn1 (racemic) [Example 1.41] | 100% | 100% | 100% | 100% | 100% | 
15 | C=CCCC(C)(O)c1cnc(N[C@H]2c3cc(C)ccc3C[C@@H]2C)nc1 (some centres unmarked) [Example 1.28] | 100% | 100% | 100% | 100% | 100% | 
16 | Cc1ccc2c(c1)[C@H](Nc1ncc([C@H](C)O)c(N)n1)[C@@H](C)C2 (racemic) [drawing 8, reference compound] |  |  |  |  |  | Herbicidal action against HORMU (HORMU: Hordeum murinum; dosage 320 g/ha): 20%; Herbicidal action against PHBPU (PHBPU: Ipomoea purpurea; dosage 320 g/ha): 20%
17 | Cc1ccc2c(c1)[C@H](Nc1ncc(C(C)(O)Cc3ccccc3)cn1)[C@@H](C)C2 (some centres unmarked) [Example 1.26] | 100% | 100% | 100% | 100% | 100% | 
18 | Cc1ccc2c(c1)[C@H](Nc1ncc(C(C)OCc3ccc(F)cc3)cn1)[C@@H](C)C2 (some centres unmarked) [Example 1.3] | 100% | 100% | 80% | 100% | 100% | 
19 | Cc1ccc2c(c1)[C@H](Nc1ncc(C(C)O)c(C(C)F)n1)[C@@H](C)C2 (some centres unmarked) [Example 1.19] | 100% | 100% | 100% | 100% | 100% | 
20 | Cc1ccc2c(c1)[C@H](Nc1ncc(C(C)(O)c3ccccc3)cn1)[C@@H](C)C2 (some centres unmarked) [Example 1.21] | 100% | 100% | 100% | 100% | 100% | 
21 | Cc1ccc2c(c1)[C@H](Nc1ncc([C@H](C)O)c(N)n1)[C@@H](C)C2 (racemic) [drawing 15, reference compound] |  |  |  |  |  | Herbicidal action against STEME (STEME: Stellaria media [11]; dosage 80 g/ha): 70%
22 | Cc1cc2c(s1)CCCC2Nc1ncc(C(C)O)c(C)n1 (centres unmarked) [drawing 17, reference compound] |  |  |  |  |  | Herbicidal efficacy against ABUTH [7]: 0; Herbicidal efficacy against ALOMY [4, 13]: 0; Herbicidal efficacy against ECHCG [5, 13]: 0; Herbicidal efficacy against LOLRI (LOLRI: Lolium rigidum): 0; Herbicidal efficacy against PHBPU (PHBPU: Ipomoea purpurea): 0; Herbicidal efficacy against POLCO [3]: 20; Herbicidal efficacy against SETVI (SETVI: Setaria viridis; [13]): 20
